The record followed here is ChEMBL document CHEMBL4706612 (Eur J Med Chem, 2021).

A word on the Ki: it is a measure of affinity in units of concentration, obtained from inhibition or displacement. Higher therefore signals lower affinity.

The nature of test [1]: Inhibition of Vibrio coralliilyticus MetAp1a by Morrison method.
A short description of test [2]: Inhibition of Vibrio parahaemolyticus MetAp1a by Morrison method.
A short description of test [3]: Inhibition of Vibrio cholerae MetAp1a by Morrison method.
Test [4] can be described thus: Inhibition of human MetAp1a by Morrison method.

With `Oc1nc(-c2ccccn2)nc2c1CSCC2`, the Ki in test [1] amounted to 7.65 µM; in test [2], 24000 nM; in test [3] it was 39000 nM; in test [4], 760 nM.

In the case of `Cc1nc(-c2ccccn2)nc(SCC(=O)N2CCOCC2)c1Cl`, the results for the Ki in test [2], in test [3] and in test [4] were 12600 nM, 7960 nM and 170 nM, respectively.

Consider `Cc1cc(S)nc(-c2ccccn2)n1`, for which the Ki came to 16.2 µM in test [1], 200 nM in test [2], 120 nM in test [3] and 150 nM in test [4].

Turning to `Cc1cc(Oc2ccc(Cl)cc2)nc(-c2ccccn2)n1`, the Ki in test [2] was 350 nM; in test [3] it was 730 nM; in test [4], 230 nM.

Turning to `Cc1nc(-c2ccccn2)nc(N(C)c2ccccc2)c1Cl`, the Ki in test [2] worked out at 240 nM; in test [3], 490 nM; in test [4], 770 nM.

As for `COc1ccc(C(=O)CSc2nc(-c3ccccn3)nc(C)c2Cl)cc1`, the Ki in test [2] was 5710 nM; in test [3] it was 1430 nM.

Consider `Cc1nc(-c2ccccn2)nc(SCC(=O)c2ccc(F)cc2)c1Cl`, for which the Ki was found to be 1900 nM in test [2], 1890 nM in test [3] and 2350 nM in test [4].

`Cc1nc(-c2ccccn2)nc(N2CCOCC2)c1Cl`: the Ki in test [2] came out at 1620 nM; in test [3] it was 880 nM; in test [4] it was 110 nM.

With `CC(C)S(=O)(=O)c1cnc(-c2ccccn2)nc1N`, the Ki came to 49.3 µM in test [1], 35000 nM in test [2], 60 nM in test [3] and 220 nM in test [4].

Regarding `Cc1nc(-c2ccccn2)nc(NCCNc2cccc(C(F)(F)F)n2)c1Cl`, the Ki in test [2] was found to be 7910 nM; in test [3], 3560 nM.

In the case of `Cc1nc(-c2ccccn2)nc(NC2CCN(c3ncc(C(F)(F)F)cc3Cl)CC2)c1Cl`, the Ki in test [2] was determined as 4560 nM; in test [3], 4780 nM.

Regarding `Cc1nc(-c2ccccn2)nc(N2CCN(c3ncnc4scc(-c5ccccc5)c34)CC2)c1Cl`, the Ki in test [2] was determined as 1950 nM; in test [3], 480 nM.

In the case of `Cc1nc(-c2ccccn2)nc(N2CCCN(Cc3ccc(Cl)cc3Cl)CC2)c1Cl`, the values for the Ki in test [2], in test [3] and in test [4] were 3230 nM, 730 nM and 850 nM, respectively.

Regarding `Oc1cc(C(F)(F)F)nc(-c2ccccn2)n1`, the Ki in test [1] worked out at 13.1 µM; in test [2] it was 90 nM; in test [3] it was 150 nM; in test [4] it was 100 nM.

Turning to `FC(F)(F)c1nc(-c2ccccn2)ncc1-c1nnnn1-c1ccc(Cl)cc1`, the Ki in test [2] turned out to be 10800 nM.

Regarding `FC(F)(F)c1cccc(-c2nc(-c3ccccn3)ncc2-c2nnnn2-c2ccccc2)c1`, the Ki in test [2] stood at 2730 nM; in test [3], 1130 nM; in test [4] it was 43900 nM.

Turning to `Cc1nc(-c2ccccn2)nc(N2CCN(C)CC2)c1Cl`, the Ki was found to be 480 nM in test [2], 200 nM in test [3] and 290 nM in test [4].

Take `Cc1cc(Oc2cc(Cl)cc(Cl)c2)nc(-c2ccccn2)n1`: the values for the inhibitory constant (Ki) in test [2], in test [3] and in test [4] were 280 nM, 50 nM and 4210 nM, respectively.

Turning to `Cc1cc(O)nc(-c2ccccn2)n1`, the Ki in test [1] turned out to be 6.8 µM; in test [2] it was 210 nM; in test [3], 300 nM; in test [4], 620 nM.

`CSc1nc(-c2ccccn2)nc(N)c1C#N`: the Ki in test [2] was found to be 130 nM; in test [3], 680 nM; in test [4], 210 nM.

Consider `Cc1nc(-c2ccccn2)nc(O)c1Cc1c(Cl)cccc1Cl`, for which the Ki in test [1] was 10.2 µM; in test [2], 160 nM; in test [3], 230 nM.

As to `Cc1nc(-c2ccccn2)nc(O)c1CC1CC1`, the Ki in test [1] was 9.29 µM; in test [2] it was 80 nM; in test [3] it was 320 nM; in test [4] it was 130 nM.

Regarding `FC(F)(F)c1cc(Nc2cc(Cl)cc(Cl)c2)nc(-c2ccccn2)n1`, the figures for the Ki in test [2] and in test [3] were 140 nM and 60 nM, respectively.

Take `CCCCCc1c(C)nc(-c2ccccn2)nc1O`: the Ki was 11.6 µM in test [1], 3310 nM in test [2], 720 nM in test [3] and 70 nM in test [4].

For the molecule `C=CC(C)c1c(O)nc(-c2ccccn2)nc1CCC` (centres undefined), the Ki worked out at 7.24 µM in test [1], 150 nM in test [2], 310 nM in test [3] and 80 nM in test [4].

As to `CCCc1nc(-c2ccccn2)nc(O)c1CC1CC1`, the Ki in test [1] came to 9.13 µM; in test [2] it was 1130 nM; in test [3] it was 70 nM; in test [4], 1380 nM.

For `Nc1cc(O)nc(-c2ccccn2)n1`, the Ki in test [1] was 11.9 µM; in test [2], 240 nM; in test [3], 80 nM; in test [4], 650 nM.

In the case of `CCOC(=O)c1cnc(-c2ccccn2)nc1O`, the Ki came to 5.93 µM in test [1], 1420 nM in test [2], 110 nM in test [3] and 510 nM in test [4].

For `CC(=O)Nc1cc(O)nc(-c2ccccn2)n1`, the Ki was found to be 5.12 µM in test [1], 1110 nM in test [2], 90 nM in test [3] and 1480 nM in test [4].

On to `Cc1nc(-c2ccc(C(F)(F)F)cn2)nc(N2CCCCC2)c1Cl`, for which the Ki in test [3] amounted to 4610 nM; in test [4] it was 55800 nM.

As to `Cc1nc(-c2ccc(C(F)(F)F)cn2)nc(Sc2ccc(Cl)cc2)c1Cl`, the figures for the Ki in test [2] and in test [3] were 16200 nM and 6960 nM, respectively.

With `c1ccc(-c2ccccn2)nc1`, the Ki in test [1] came to 2.83 µM; in test [2], 2910 nM; in test [3], 2840 nM; in test [4], 390 nM.

Consider `Cc1nc(-c2ccccn2)nc(N2CCN(CCO)CC2)c1Cl`, for which the figures for the Ki in test [2] and in test [3] were 3710 nM and 600 nM, respectively.

On to `Cc1nc(-c2ccccn2)nc(NCCc2ccccc2)c1Cl`, for which the Ki worked out at 3730 nM in test [2] and 510 nM in test [3].

On to `CCN(CC)C(=O)Oc1nc(-c2ccccn2)nc(COC)c1CC1CC1`, for which the Ki was determined as 2810 nM in test [2], 2470 nM in test [3] and 450 nM in test [4].

For `COCc1nc(-c2ccccn2)nc(O)c1CC1CC1`, the Ki in test [1] was 27.5 µM; in test [2] it was 250 nM; in test [3], 160 nM; in test [4] it was 290 nM.

For `CCCc1nc(-c2ccccn2)nc(OC(=O)N(C)C)c1Cc1c(F)cccc1Cl`, the Ki in test [2] was determined as 600 nM; in test [3], 70 nM; in test [4], 180 nM.
